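96-well plates; 48 h exposure; 5 concentrations. Endpoints by linear interpolation between flanking doses. Not reached: highest tested concentration assigned. Abbreviation: GI50, concentration required for 50% inhibition of growth. At the TGI there is no net growth.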
Legend:
Test in all cases: DTP human tumour cell line panel, 48 h
[1] = system: 786-0 renal
[2] = system: A498 renal
[3] = system: A549 NSCLC
[4] = system: ACHN renal
[5] = system: CAKI-1 renal
[6] = system: CCRF-CEM leukemia
[7] = system: COLO 205 colon
[8] = system: DLD-1 colon
[9] = system: DMS 114 small cell lung
[10] = system: DMS 273 small cell lung
[11] = system: EKVX NSCLC
[12] = system: HCC-2998 colon
[13] = system: HCT-116 colon
[14] = system: HCT-15 colon
[15] = system: HL-60(TB) leukemia
[16] = system: HOP-62 NSCLC
[17] = system: HOP-92 NSCLC
[18] = system: HT29 colon
[19] = system: IGROV1 ovarian
[20] = system: K-562 leukemia
[21] = system: KM12 colon
[22] = system: KM20L2 colon
[23] = system: LOX IMVI melanoma
[24] = system: LXFL 529 NSCLC
[25] = system: M14 melanoma
[26] = system: M19-MEL melanoma
[27] = system: MALME-3M melanoma
[28] = system: MOLT-4 leukemia
[29] = system: NCI-H226 lung
[30] = system: NCI-H23 lung
[31] = system: NCI-H460 lung
[32] = system: NCI-H522 lung
[33] = system: OVCAR-3 ovarian
[34] = system: OVCAR-4 ovarian
[35] = system: OVCAR-5 ovarian
[36] = system: OVCAR-8 ovarian
[37] = system: RPMI-8226 leukemia
[38] = system: RXF 393 renal
[39] = system: SF-295 CNS
[40] = system: SF-539 CNS
[41] = system: SK-MEL-2 melanoma
[42] = system: SK-MEL-28 melanoma
[43] = system: SK-MEL-5 melanoma
[44] = system: SK-OV-3 ovarian
[45] = system: SN12C renal
[46] = system: SNB-19 CNS
[47] = system: SNB-75 CNS
[48] = system: SNB-78 CNS
[49] = system: SR leukemia
[50] = system: SW-620 colon
[51] = system: TK-10 renal
[52] = system: U251 CNS
[53] = system: UACC-257 melanoma
[54] = system: UACC-62 melanoma
[55] = system: UO-31 renal
[56] = system: XF 498 CNS
[57] = system: HOP-18 NSCLC
[58] = system: SF-268 CNS

C/C=C/C1(C)/C(=N\O)C(C)(CCC)C(=O)N1O (centres undefined)
TGI [1]: > 100 µM
TGI [2]: > 100 µM
TGI [3]: > 100 µM
TGI [4]: > 100 µM
TGI [5]: > 100 µM
TGI [6]: > 100 µM
TGI [7]: > 100 µM
TGI [8]: > 100 µM
TGI [9]: > 100 µM
TGI [10]: > 100 µM
TGI [11]: > 100 µM
TGI [12]: > 100 µM
TGI [13]: > 100 µM
TGI [14]: > 100 µM
TGI [15]: > 100 µM
TGI [16]: > 100 µM
TGI [17]: > 100 µM
TGI [18]: > 100 µM
TGI [19]: > 100 µM
TGI [20]: > 100 µM
TGI [21]: > 100 µM
TGI [22]: > 100 µM
TGI [23]: > 100 µM
TGI [24]: > 100 µM
TGI [25]: > 100 µM
TGI [26]: > 100 µM
TGI [27]: > 100 µM
TGI [28]: > 100 µM
TGI [29]: > 100 µM
TGI [30]: > 100 µM
TGI [31]: > 100 µM
TGI [32]: > 100 µM
TGI [33]: > 100 µM
TGI [34]: > 100 µM
TGI [35]: > 100 µM
TGI [36]: > 100 µM
TGI [37]: > 100 µM
TGI [38]: > 100 µM
TGI [39]: > 100 µM
TGI [40]: > 100 µM
TGI [41]: > 100 µM
TGI [42]: > 100 µM
TGI [43]: > 100 µM
TGI [44]: > 100 µM
TGI [45]: > 100 µM
TGI [46]: > 100 µM
TGI [47]: > 100 µM
TGI [48]: > 100 µM
TGI [49]: > 100 µM
TGI [50]: > 100 µM
TGI [51]: > 100 µM
TGI [52]: > 100 µM
TGI [53]: > 100 µM
TGI [54]: > 100 µM
TGI [55]: > 100 µM
TGI [56]: > 100 µM

O=C1C(C(Nc2ccccc2)c2ccccc2)=C([O-])c2ccccc21.O=C1C(C(Nc2ccccc2)c2ccccc2)=C([O-])c2ccccc21.[Ni+2] (centres undefined)
GI50 [2]: 7.57 µM
TGI [2]: > 100 µM
GI50 [3]: 4.17 µM
TGI [3]: > 100 µM
GI50 [4]: 7.81 µM
TGI [4]: > 100 µM
GI50 [5]: 28.8 µM
TGI [5]: > 100 µM
GI50 [6]: 3.96 µM
TGI [6]: > 100 µM
GI50 [8]: 4.2 µM
TGI [8]: > 100 µM
GI50 [11]: 3.33 µM
TGI [11]: 9.82 µM
GI50 [12]: 4.41 µM
TGI [12]: > 100 µM
GI50 [13]: 3.05 µM
TGI [13]: > 100 µM
GI50 [14]: 4.09 µM
TGI [14]: > 100 µM
GI50 [57]: 31.1 µM
TGI [57]: > 100 µM
GI50 [16]: 14.2 µM
TGI [16]: > 100 µM
GI50 [17]: 6.14 µM
TGI [17]: 55.6 µM
GI50 [18]: 4 µM
TGI [18]: > 100 µM
GI50 [19]: 4.9 µM
TGI [19]: > 100 µM
GI50 [20]: 3.59 µM
TGI [20]: > 100 µM
GI50 [21]: 4.01 µM
TGI [21]: > 100 µM
GI50 [22]: 24.4 µM
TGI [22]: 77.7 µM
GI50 [23]: 5.81 µM
TGI [23]: > 100 µM
GI50 [25]: 7.99 µM
TGI [25]: > 100 µM
GI50 [26]: 11 µM
TGI [26]: > 100 µM
GI50 [27]: 7.91 µM
TGI [27]: > 100 µM
GI50 [28]: 3.71 µM
TGI [28]: > 100 µM
GI50 [29]: 17.9 µM
TGI [29]: > 100 µM
GI50 [30]: 5.23 µM
TGI [30]: > 100 µM
GI50 [31]: 4.46 µM
TGI [31]: > 100 µM
GI50 [33]: 22.2 µM
TGI [33]: 66.4 µM
GI50 [34]: 16.5 µM
TGI [34]: > 100 µM
GI50 [35]: 3.55 µM
TGI [35]: 49.5 µM
GI50 [36]: 4.43 µM
TGI [36]: > 100 µM
GI50 [38]: 4.9 µM
TGI [38]: 85 µM
GI50 [58]: 3.35 µM
TGI [58]: > 100 µM
GI50 [39]: 3.69 µM
TGI [39]: > 100 µM
GI50 [40]: 3.66 µM
TGI [40]: > 100 µM
GI50 [41]: 3.32 µM
TGI [41]: 15.2 µM
GI50 [42]: 9.95 µM
TGI [42]: > 100 µM
GI50 [43]: 1.34 µM
TGI [43]: 7.45 µM
GI50 [44]: 2.66 µM
TGI [44]: 6.78 µM
GI50 [45]: 4.56 µM
TGI [45]: > 100 µM
GI50 [46]: 25.6 µM
TGI [46]: 56.7 µM
GI50 [47]: 6.34 µM
TGI [47]: 94.7 µM
GI50 [48]: 7.6 µM
TGI [48]: > 100 µM
GI50 [49]: 3.72 µM
TGI [49]: > 100 µM
GI50 [50]: 5.3 µM
TGI [50]: > 100 µM
GI50 [51]: 12.8 µM
TGI [51]: > 100 µM
GI50 [53]: 42.3 µM
TGI [53]: > 100 µM
GI50 [54]: 6.59 µM
TGI [54]: 51 µM
GI50 [55]: 11.5 µM
TGI [55]: > 100 µM
GI50 [56]: 4.9 µM
TGI [56]: 54.8 µM
